Data: the supplement of paper PMC10307832

Assays:
Assay in all cases: relative viability (nuclei count vs DMSO), 5 days (fraction); higher = more cells survive
Neratinib + Crizotinib = compound: CCOc1cc2ncc(C#N)c(Nc3ccc(OCc4ccccn4)c(Cl)c3)c2cc1NC(=O)/C=C/CN(C)C [Neratinib] + C[C@@H](Oc1cc(-c2cnn(C3CCNCC3)c2)cnc1N)c1c(Cl)ccc(F)c1Cl [Crizotinib] (partner 1 µM)
Summary of the method: (§1)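 Lung cancer cell lines were seeded in 1536-well plates and dosed by pin tool the next day, with either a single drug or a fixed anchor-drug dose combined with five library-drug doses (not always all listed) spaced in √10 steps. Five days later, one step fixed the cells and stained their nuclei (final 0.05% Triton X-100, 1% formaldehyde, 1 ug/ml Hoechst), and nuclei were counted on 4× images. Relative viability is the nuclei count in treated wells divided by the count in vehicle wells, and each value is the median of duplicate plates.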

Neratinib + Phenformin = compound: CCOc1cc2ncc(C#N)c(Nc3ccc(OCc4ccccn4)c(Cl)c3)c2cc1NC(=O)/C=C/CN(C)C [Neratinib] + N=C(N)NC(=N)NCCc1ccccc1 [Phenformin] (partner 250 µM)
Summary of the method: as §1

Neratinib + Navitoclax = compound: CCOc1cc2ncc(C#N)c(Nc3ccc(OCc4ccccn4)c(Cl)c3)c2cc1NC(=O)/C=C/CN(C)C [Neratinib] + CC1(C)CCC(c2ccc(Cl)cc2)=C(CN2CCN(c3ccc(C(=O)NS(=O)(=O)c4ccc(N[C@H](CCN5CCOCC5)CSc5ccccc5)c(S(=O)(=O)C(F)(F)F)c4)cc3)CC2)C1 [Navitoclax] (partner 0.5 µM)
Summary of the method: as §1

Neratinib + Decitabine = compound: CCOc1cc2ncc(C#N)c(Nc3ccc(OCc4ccccn4)c(Cl)c3)c2cc1NC(=O)/C=C/CN(C)C [Neratinib] + Nc1ncn([C@H]2C[C@H](O)[C@@H](CO)O2)c(=O)n1 [Decitabine] (partner 2 µM)
Summary of the method: as §1

| Cell Line | relative viability (Neratinib + Crizotinib; first compound 0.01 µM) | relative viability (Neratinib + Crizotinib; first compound 0.03162 µM) | relative viability (Neratinib + Crizotinib; first compound 0.1 µM) | relative viability (Neratinib + Crizotinib; first compound 0.3162 µM) | relative viability (Neratinib + Crizotinib; first compound 1 µM) | relative viability (Neratinib + Phenformin; first compound 0.01 µM) | relative viability (Neratinib + Phenformin; first compound 0.03162 µM) | relative viability (Neratinib + Phenformin; first compound 0.1 µM) | relative viability (Neratinib + Phenformin; first compound 0.3162 µM) | relative viability (Neratinib + Phenformin; first compound 1 µM) | relative viability (Neratinib + Navitoclax; first compound 0.01 µM) | relative viability (Neratinib + Navitoclax; first compound 0.03162 µM) | relative viability (Neratinib + Navitoclax; first compound 0.1 µM) | relative viability (Neratinib + Navitoclax; first compound 0.3162 µM) | relative viability (Neratinib + Navitoclax; first compound 1 µM) | relative viability (Neratinib + Decitabine; first compound 0.01 µM) | relative viability (Neratinib + Decitabine; first compound 0.03162 µM) | relative viability (Neratinib + Decitabine; first compound 0.1 µM) | relative viability (Neratinib + Decitabine; first compound 0.3162 µM) | relative viability (Neratinib + Decitabine; first compound 1 µM) |
| --- | --- | --- | --- | --- | --- | --- | --- | --- | --- | --- | --- | --- | --- | --- | --- | --- | --- | --- | --- | --- |
| NCI-H2126 | 1.05 | 1.03 | 1.03 | 1.06 | 0.51 | 0.534 | 0.535 | 0.487 | 0.484 | 0.381 | 0.861 | 0.831 | 0.682 | 0.748 | 0.35 | 0.644 | 0.632 | 0.54 | 0.566 | 0.556 |
| NCI-H2170 | 1.14 | 0.77 | 0.617 | 0.302 | 0.223 | 0.419 | 0.418 | 0.269 | 0.268 | 0.216 | 0.391 | 0.377 | 0.274 | 0.196 | 0.184 | 0.548 | 0.457 | 0.412 | 0.213 | 0.18 |
| NCI-H2347 | 0.693 | 0.743 | 0.629 | 0.675 | 0.464 | 0.416 | 0.565 |  | 0.338 | 0.244 | 0.819 | 0.945 | 0.68 | 0.786 | 0.698 | 0.679 | 0.606 |  | 0.545 | 0.633 |
| NCI-H2405 | 0.873 | 0.879 | 0.834 | 0.765 | 0.781 | 0.421 | 0.393 | 0.414 | 0.33 | 0.359 | 0.904 | 0.887 | 0.784 | 0.785 | 0.188 | 0.799 | 0.74 | 0.769 | 0.675 | 0.669 |
| NCI-H3122 | 0.291 | 0.284 | 0.222 | 0.188 | 0.198 | 0.366 | 0.407 | 0.317 | 0.35 | 0.187 | 1.05 | 1.02 | 1.05 | 1.03 | 0.407 | 0.365 | 0.544 | 0.488 | 0.457 | 0.364 |
| PC-3 [JPC-3] | 1.09 | 1.09 | 0.997 | 0.948 | 0.345 | 0.459 | 0.497 | 0.432 | 0.365 | 0.336 | 0.731 | 0.826 | 0.784 | 0.624 | 0.333 | 0.814 | 0.912 | 0.764 | 0.547 | 0.606 |
| PC-14 |  | 0.851 | 0.796 | 0.662 | 0.356 | 0.602 | 0.764 | 0.655 | 0.267 | 0.186 | 0.988 | 1.01 | 0.928 | 0.936 | 0.24 | 0.217 | 0.285 | 0.241 | 0.194 | 0.108 |
| RERF-LC-KJ | 0.847 | 0.817 | 0.795 | 0.701 | 0.633 | 0.427 | 0.405 | 0.385 | 0.318 | 0.353 | 0.854 | 1.07 | 0.724 | 0.69 | 0.493 | 0.777 | 0.744 | 0.618 | 0.72 | 0.457 |
| SK-LU-1 | 1.05 |  | 0.848 | 0.604 | 0.402 | 0.584 | 0.515 | 0.521 | 0.381 | 0.25 | 0.842 | 0.979 |  | 0.0386 | 0.523 | 0.662 | 0.796 | 0.588 | 0.579 | 0.421 |
| SK-MES-1 | 1.02 | 0.998 | 0.969 |  | 0.314 | 0.675 | 0.706 | 0.665 | 0.285 | 0.2 | 1.38 | 1.3 | 1.06 | 0.651 | 0.432 | 0.401 | 0.403 | 0.3 | 0.299 | 0.221 |
| SW 1573 | 0.91 | 0.929 | 0.892 | 0.628 | 0.546 | 0.431 | 0.466 | 0.384 | 0.311 | 0.185 | 1.32 | 1.15 | 0.862 | 0.87 | 0.804 | 0.466 | 0.628 | 0.574 | 0.507 | 0.265 |
| UMC-11 | 0.651 | 0.684 | 0.52 | 0.537 | 0.528 | 0.333 | 0.328 | 0.32 | 0.293 | 0.275 | 0.283 | 0.332 | 0.264 | 0.316 | 0.252 | 0.324 | 0.574 | 0.634 | 0.414 | 0.194 |
